Results from ChEMBL document CHEMBL5625275, “Design, synthesis and biological evaluation of tanshinone IIA derivatives as NLRP3 inflammasome inhibitors” (Bioorg Med Chem Lett, 2024).
Calls of active or inactive are those of the source. The rule behind the calls is not given here.

Experiments:
[1] = target: NACHT, LRR and PYD domains-containing protein 3 (Mus musculus, UniProt Q8R4B8); test: Inhibition of NLRP3 inflammasome in mouse J774.A1 cells assessed as inhibition of IL-1 beta secretion; type: cell-based
[2] = Cytotoxicity against mouse J774.A1 cells assessed as cell viability; type: toxicity, cell-based; conditions: read-out: TC50 (the source's name)
Mus musculus [3] = test: Anti-inflammatory activity against LPS-induced peritonitis C57BL/6 mouse model assessed as inhibition of IL-1 beta level in serum at 25 to 100 mg/kg, IG by ELISA analysis; type: functional, organism-based; conditions: dose 25-100 mg/kg
Mus musculus [4] = test: Anti-inflammatory activity against LPS-induced peritonitis C57BL/6 mouse model assessed as inhibition of IL-1 beta level in peritoneal fluid at 25 to 100 mg/kg, IG by ELISA analysis; type: functional, organism-based; conditions: dose 25-100 mg/kg
J774.A1 [5] = test: Inhibition of mitochondrial ROS production in LPS/nigericin stimulated mouse J774.A1 cells at 1 to 5 uM pretreated for 1 hr with compound and LPS followed by nigericin treatment for 1 hr by MitoSOX staining based immunofluorescence analysis; type: functional, cell-based; conditions: dose 1-5 µM, time 2.0 hrs
[6] = target: NACHT, LRR and PYD domains-containing protein 3 (Mus musculus) (UniProt Q8R4B8); test: Inhibition of NLRP3 inflammasome activation in LPS primed mouse J774.A1 cells assessed as reduction in cleaved gasdermin-D at 1 to 5 uM preincubated with compound for 1 hr followed by nigericin stimulation and measured after 1 hr by ELISA method; type: cell-based; conditions: dose 1-5 µM, time 2.0 hrs
J774.A1 [7] = test: Inhibition of intracellular ROS generation in LPS primed mouse J774.A1 cells assessed as decrease in ROS positive cells at 1 uM pretreated for 1 hr followed by nigericin treatment for 1 hr by DCFH-DA staining based fluorescence microscopy (reference value: 52%); type: functional; design: scale not given: the % may be the effect or the level left; conditions: time 2 hrs
[8] = target: NACHT, LRR and PYD domains-containing protein 3 (Mus musculus) (UniProt Q8R4B8); test: Inhibition of NLRP3 inflammasome in LPS primed mouse J774.A1 cells assessed as inhibition of caspase-1 maturation at 1 to 5 uM preincubated with compound for 1 hr followed by nigericin stimulation and measured after 1 hr by Western blot analysis; type: cell-based; conditions: dose 1-5 µM, time 2.0 hrs
NLRP3 inflammasome = test: Selectivity index, ratio of TC50 for mouse J774.A1 cells to IC50 for NLRP3 inflammasome in mouse J774.A1 cells; type: toxicity, cell-based; conditions: read-out: Selectivity Index
J774.A1 [9] = test: Inhibition of intracellular ROS generation in LPS primed mouse J774.A1 cells pretreated for 1 hr followed by nigericin treatment for 1 hr by DCFH-DA staining based fluorescence microscopy; type: functional, cell-based; conditions: dose 1-5 µM, time 2.0 hrs
[10] = target: NACHT, LRR and PYD domains-containing protein 3 (Mus musculus) (UniProt Q8R4B8); test: Inhibition of NLRP3 inflammasome in LPS primed mouse J774.A1 cells assessed as inhibition of IL-1 beta secretion in cell supernatant at 1 to 5 uM preincubated with compound for 1 hr followed by nigericin stimulation and measured after 1 hr by Western blot analysis; type: cell-based; conditions: dose 1-5 µM, time 2.0 hrs
[11] = target: NACHT, LRR and PYD domains-containing protein 3 (Mus musculus) (UniProt Q8R4B8); test: Inhibition of NLRP3 inflammasome activation in LPS primed mouse J774.A1 cells assessed as decrease in IL-1 beta production preincubated with compound for 1 hr followed by nigericin stimulation and measured after 1 hr by ELISA method; type: cell-based; conditions: dose 1-5 µM, time 2.0 hrs
[12] = target: NACHT, LRR and PYD domains-containing protein 3 (Mus musculus) (UniProt Q8R4B8); test: Inhibition of NLRP3 inflammasome activation in LPS primed mouse BMDM cells assessed as decrease in IL-1 beta production preincubated with compound for 1 hr followed by nigericin stimulation and measured after 1 hr by ELISA method; type: cell-based; conditions: dose 1-5 µM, time 2.0 hrs
J774.A1 [13] = test: Inhibition of intracellular ROS generation in LPS primed mouse J774.A1 cells assessed as decrease in ROS positive cells at 5 uM pretreated for 1 hr followed by nigericin treatment for 1 hr by DCFH-DA staining based fluorescence microscopy (reference value: 52%); type: functional; design: scale not given: the % may be the effect or the level left; conditions: time 2 hrs
[14] = target: NACHT, LRR and PYD domains-containing protein 3 (Mus musculus) (UniProt Q8R4B8); test: Inhibition of NLRP3 inflammasome activation in LPS primed mouse J774.A1 cells assessed as reduction in lactate dehydrogenase at 1 to 5 uM preincubated with compound for 1 hr followed by nigericin stimulation and measured after 1 hr by ELISA method; type: cell-based; conditions: dose 1-5 µM, time 2.0 hrs

NACHT, LRR and PYD domains-containing protein 3 (Mus musculus), sequence (Q8R4B8 whole entry, the tested form may be a part): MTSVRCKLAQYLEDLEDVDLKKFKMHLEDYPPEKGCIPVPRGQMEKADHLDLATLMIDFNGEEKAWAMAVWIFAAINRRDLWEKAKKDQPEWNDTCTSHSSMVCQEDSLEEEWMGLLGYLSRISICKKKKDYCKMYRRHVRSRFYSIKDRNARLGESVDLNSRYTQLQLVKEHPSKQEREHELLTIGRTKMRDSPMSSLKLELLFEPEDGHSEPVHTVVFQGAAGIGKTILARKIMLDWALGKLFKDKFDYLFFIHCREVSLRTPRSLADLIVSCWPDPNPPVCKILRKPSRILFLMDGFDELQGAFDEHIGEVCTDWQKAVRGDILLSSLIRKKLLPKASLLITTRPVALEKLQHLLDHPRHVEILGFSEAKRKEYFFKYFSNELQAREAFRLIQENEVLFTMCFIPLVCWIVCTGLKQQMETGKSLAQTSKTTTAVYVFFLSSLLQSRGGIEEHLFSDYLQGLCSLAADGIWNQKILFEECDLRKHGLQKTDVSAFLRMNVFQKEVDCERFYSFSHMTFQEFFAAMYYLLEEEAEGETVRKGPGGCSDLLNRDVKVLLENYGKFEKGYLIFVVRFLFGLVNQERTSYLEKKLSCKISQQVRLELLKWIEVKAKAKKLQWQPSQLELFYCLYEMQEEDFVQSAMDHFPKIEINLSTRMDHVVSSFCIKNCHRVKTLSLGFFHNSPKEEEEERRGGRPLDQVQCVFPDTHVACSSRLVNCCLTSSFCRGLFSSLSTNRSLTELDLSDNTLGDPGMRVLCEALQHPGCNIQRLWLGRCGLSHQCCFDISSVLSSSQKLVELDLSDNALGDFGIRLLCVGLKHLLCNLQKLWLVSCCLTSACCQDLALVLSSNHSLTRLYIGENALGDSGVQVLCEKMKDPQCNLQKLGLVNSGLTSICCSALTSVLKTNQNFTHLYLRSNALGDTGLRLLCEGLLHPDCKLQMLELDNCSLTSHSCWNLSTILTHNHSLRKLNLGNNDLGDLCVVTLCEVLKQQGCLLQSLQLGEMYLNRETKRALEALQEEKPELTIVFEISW
NACHT, LRR and PYD domains-containing protein 3, sequence (Q8R4B8 whole entry, the tested form may be a part): as above

In the case of Cc1coc2c1C(=O)C(=O)c1c-2ccc2c1C(OC(=O)c1cccc(O)c1)CCC2(C)C (centres undefined), the IC50 [1] is reported as 5.53 µM and the CC50 [2] is reported as 18.2 µM.
In the case of Cc1c(-c2ccccc2)oc2c1C(=O)C(=O)c1c-2ccc2c1CCCC2(C)C, the IC50 [1] is reported as over 40 µM and the CC50 [2] is reported as over 100 µM.
COc1cc(/C=C/C(=O)OC2CCC(C)(C)c3ccc4c(c32)C(=O)C(=O)c2c(C)coc2-4)cc(OC)c1OC (centres undefined) showed an IC50 [1] of 9.11 µM and a CC50 [2] of 60.2 µM.
For Cc1coc2c1C(=O)C(=O)c1c-2ccc2c1CCCC2(C)C [TANSHINONE IIA], the IC50 [1] was 5.15 µM and the CC50 [2] was over 100 µM.
In the case of Cc1c(S(=O)(=O)O)oc2c1C(=O)C(=O)c1c-2ccc2c1CCCC2(C)C [TANSHINONE IIA SULFONIC ACID], the IC50 [1] is reported as 4.3 µM and the CC50 [2] is reported as over 100 µM.
For Cc1coc2c1C(=O)C(=O)c1c-2ccc2c1C(OC(=O)c1ccccc1O)CCC2(C)C (centres undefined), the Activity (Mus musculus [3]) was “Active”, the Activity (Mus musculus [4]) was “Active” and the IC50 [1] was 0.48 µM. For the same molecule, the inhibition (J774.A1 [5]) was “Active”, the inhibition [6] was “Active” and the Activity (J774.A1 [7]) was 60%. The inhibition [8] was “Active”, the selectivity ratio (NLRP3 inflammasome) was 62.1 and the inhibition (J774.A1 [9]) was “Dose-Dependent Effect”. For the same molecule, the inhibition [10] was “Active”, the inhibition [11] was “Dose-Dependent Effect” and the inhibition [12] was “Dose-Dependent Effect”. The CC50 [2] was 30.8 µM, the Activity (J774.A1 [13]) was 56% and the inhibition [14] was “Active”.
With Cc1coc2c1C(=O)C(=O)c1c-2ccc2c1C(OC(=O)CCCCC1CCSS1)CCC2(C)C (centres undefined) the IC50 [1] was 1.27 µM and the CC50 [2] was 26.8 µM.
For Cc1coc2c1C(=O)C(=O)c1c-2ccc2c1C(OC(=O)c1cc(Cl)ccc1Cl)CCC2(C)C (centres undefined), the IC50 [1] was 3.6 µM and the CC50 [2] was 19.7 µM.
Cc1coc2c3ccc4c(c3c3ocnc3c12)CCCC4(C)C showed an IC50 [1] of over 40 µM and a CC50 [2] of over 100 µM.
Molecule Cc1coc2c1C(=O)C(=O)c1c-2ccc2c1C(OC(=O)c1ccc(O)cc1)CCC2(C)C (centres undefined) has an IC50 [1] of 2.57 µM and a CC50 [2] of 14.5 µM.
For Cc1c(Br)oc2c1C(=O)C(=O)c1c-2ccc2c1CCCC2(C)C, the IC50 [1] was 5.21 µM and the CC50 [2] was over 100 µM.
CC(=O)OC1CCC(C)(C)c2ccc3c(c21)C(=O)C(=O)c1c(C)coc1-3 (centres undefined) gave an IC50 [1] of 1.25 µM and a CC50 [2] of 36.5 µM.
Cc1coc2c1C(=O)C(=O)c1c-2ccc2c1C=CCC2(C)C gave an IC50 [1] of 0.61 µM and a CC50 [2] of 61.8 µM.
